For two compounds, IC50 results are on record in patent US7053219B2, “Isoxazolopyridone derivatives and their use” (Banyu Pharmaceutical Co. Ltd., priority 2001, dated 2006).

The assay concerns the target T1, rat metabotropic glutamic acid receptor 7a (Rattus norvegicus, UniProt P35400).
T1 construct: expressed in transfected cells
The assay can be described thus: Metabotropic glutamic acid receptor-antagonistic effect (Test Method 1, [Ca2+]i by FLIPR). Format: cell-based. To be noted: CHO cells stably expressing rat metabotropic glutamic acid receptor 7a and Gα15, agonist 0.5 mM L-AP4, test compound given 5 minutes before agonist, [Ca2+]i with Fluo-3AM. The text has this: (Test Method 1) Metabotropic Glutamic Acid Receptor-Antagonistic Effect:
Using LIPOFECTAMINE (by Gibco BRL), CHO cells were transfected with a CDNA of rat metabotropic glutamic acid receptor 7a, which is described in J. Biol. Chem., N. Okamoto et al., Vol. 269, pp. 1231–1236, 1994, to give a cell strain capable of stably expressing rat metabotropic glutamic acid receptor 7a. The metabotropic glutamic acid receptor 7a-transfected CHO cells were further transfected with a Gα15 cDNA, which is describedin J. Biol. Chem., S. Offermanns, M. I. Simon, Vol. 270, pp. 15175–15180, 1995, to give a cell strain capable of stably expressing rat metabotropic glutamic acid receptor 7a and Gα15. The CHO cells capable of stably expressing metabotropic glutamic acid receptor 7a and Gα15 were incubated along with Fluo-3AM (final concentration 4 μM) at 37° C. for 1 hour, and then washed 4 times with an assay buffer (1×Hanks' salt with 2.5 mM probenecid and 20 mM HEPES (N-2-hydroxyethylpiperazine-N′-2-ethanesulfonic acid), and the resulting cells were assayed for [Ca^2+]i. For the determination of [Ca^2+]i, used was a fluorimetric imaging plate reader (FLIPR by Molecular Device). Concretely, using an agonist, 0.5 mM L-AP4, the capacity of the antagonistic substance was measured.
The Hanks' salt was prepared by 10-fold diluting a Hanks' balanced solution (Gibuco BRL 14065-056 10×). […]

In general, IC50 refers to the concentration at which inhibition is half-maximal. The low end stands for greater potency in that assay, the high end for weaker potency in that assay.

T1 sequence (P35400 35-915): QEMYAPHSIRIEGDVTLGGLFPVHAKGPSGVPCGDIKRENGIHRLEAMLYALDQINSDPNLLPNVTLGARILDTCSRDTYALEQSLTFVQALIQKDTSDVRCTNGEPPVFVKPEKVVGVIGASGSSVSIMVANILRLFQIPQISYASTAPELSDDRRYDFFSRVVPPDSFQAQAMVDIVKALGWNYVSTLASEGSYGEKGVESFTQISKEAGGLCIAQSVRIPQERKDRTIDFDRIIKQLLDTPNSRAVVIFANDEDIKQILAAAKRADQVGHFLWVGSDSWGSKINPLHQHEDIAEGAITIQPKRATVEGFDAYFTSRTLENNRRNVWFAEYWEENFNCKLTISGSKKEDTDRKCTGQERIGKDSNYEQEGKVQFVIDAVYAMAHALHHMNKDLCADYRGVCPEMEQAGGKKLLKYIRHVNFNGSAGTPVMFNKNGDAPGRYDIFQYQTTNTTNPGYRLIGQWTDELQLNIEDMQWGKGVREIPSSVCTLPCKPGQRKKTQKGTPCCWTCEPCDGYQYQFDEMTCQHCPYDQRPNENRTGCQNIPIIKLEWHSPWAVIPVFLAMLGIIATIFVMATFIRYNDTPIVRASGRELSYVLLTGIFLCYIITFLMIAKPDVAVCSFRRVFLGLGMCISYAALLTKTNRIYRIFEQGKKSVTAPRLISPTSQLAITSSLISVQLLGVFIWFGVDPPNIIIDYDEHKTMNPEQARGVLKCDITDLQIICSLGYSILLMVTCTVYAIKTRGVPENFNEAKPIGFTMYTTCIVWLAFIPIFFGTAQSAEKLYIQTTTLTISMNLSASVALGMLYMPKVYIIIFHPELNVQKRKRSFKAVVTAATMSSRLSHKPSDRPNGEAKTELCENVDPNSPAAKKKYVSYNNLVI

Compound `Cn1c(-c2cccnc2)cc2onc(-c3ccncc3)c2c1=O` [Production Example 32, 5-methyl-6-pyridin-3-yl-3-pyridin-4-yl-isoxazolo[4,5-c]-pyridin-4(5H)-one] returned an IC50 of 10.4 nM. As to `COc1ccccc1-c1noc2cc(-c3ccccc3)n(C)c(=O)c12` [Production Example 8, 5-methyl-3-(2-methoxyphenyl)-6-phenylisoxazolo[4,5c]pyridin-4(5H)-one], the half-inhibitory concentration (IC50) was 7.65 nM.
